Experimental data reported in US12258561B2, “Compositions and methods to promote bone formation and their uses including for the treatment of cancer” (THE RESEARCH FOUNDATION FOR THE STATE UNIVERSITY OF NEW YORK, priority 2014, dated 2025).

How the values were obtained:
[1] = tested on: MSC cultures induced to become osteoblasts; experiment: Osteogenesis: mineral formation in MSC with osteoinduction media (alizarin red-S staining); assay type: cell-based, human
Source text: Methods: Human Bone Marrow was Collected from Consenting Adult Patients undergoing either an elective primary proximal femoral total hip arthroplasty or elective primary distal femoral total knee arthroplasty (n=6, mean age 65) as a part of an IRB approved study. Human MSC were derived from the adherent fraction of cells derived from each whole bone marrow aspirate collected, while the monocyte population was collected from the non-adherent fraction of the bone marrow. The monocyte fraction was enriched through sub-culture with 100-ng/mL recombinant human macrophage colony-stimulating factor (MCSF; Wyeth). In parallel experiments described below, the femurs from 3-week (n=10) and 16-week (n=20) old male mice were collected and then the bone marrow was flushed from the femur according to the following: A 21-gauge needle was inserted into the femoral intramedular canal after the removal of the proximal and distal ends of the femur. Media was then carefully passed through the proximal end of the femur, which forced the bone marrow to pass out of the bone. Finally, the bone marrow pellet was mechanically disassociated using an 18-gauge needle and then passed through a 70-μm mesh filter. These whole bone marrow aspirates were used to generate osteoclasts. Cells were maintained in Dulbecco's Modification of Eagle's Media (DMEM) containing 10% fetal calf serum (v/v) and 1% penicillin-streptomycin-glutamine (PSG; Cellgro, Mediatech). […] The responsible IACUC committee approved all of the animal studies described in this work.
Osteogenesis: Osteogenic potential in MSC was assayed by chemically inducing mineral formation. MSC from at least three human patients were seeded at 5×10^3 cells per well and allowed to become confluent and woven prior to the addition of osteo-induction media. Induction media consisted of DMEM containing 20% FCS (v/v) and 1% PSG supplemented with 25-μg/mL of acscorbic-2-phosphate (Sigma), 100-nM dexamethasone (Sigma) and the following dosing regimen of β-glycerophosphate (BGP; Sigma): 1× media change with 5-mM BGP, 1× media change with 10-mM BGP and 1× media change with 20-mM of BGP. Met5-ligand (0-, [5-μM] 2.87-, or [50-μM] 28.7-μg; Sigma), naloxone (0-, 400-fg, 400-pg, 400-ng, 400-μg; Sigma) or naltrexone (0-, 378-fg, 378-pg, 378-ng, 378-μg; Sigma) was added as follows: 1) 1×, with the first addition of osteo-induction media, 2) 2×, with the first and second addition of osteo-induction media and 3) with each post-induction media change. […] After the appearance of mineral nodules, cells were fixed with 70% ice-cold EtOH (Sigma) and then stained using 40-mM alizarin red-S (pH 4.2, Sigma). Osteogenesis experiments were repeated at least twice for each patient.

MSC = experiment: Assay of cell number (MTT) in MSC cultures; assay type: cell-based, human; conditions: 1-mM
Protocol: (§1) Assay of Cell Number: Following the addition of 1-mM naloxone or 1-mM naltrexone, viable cell number was determined with the MTT assay. After 72-hours and 120-hours, MTT (5 mg/ml (w/v), Sigma) was added to each well, incubated for 2-hours, after which the cells lysed with 500-μl of DMSO (Sigma). MTT was measured at 570-nm and the effects of therapy on cell proliferation were determined by normalizing treated wells relative to mean values from non-treated wells: Fold change in cell number=100*[treated cells optical density/mean control optical density].

[2] = tested on: unicortical defect in mouse tibia; experiment: Unicortical defect model, direct injection, microCT; assay type: in vivo, C57BL/6 mice
Protocol: Unicortical Defect Model: Male 3-week old C57BL/6 mice (n=5 per treatment group) were injected with met5, naloxone or naltrexone following the creation of a unicortical defect. Briefly, a small incision (approximately 3-mm) was made just below the knee joint, located on the medial side of the tibia just below the tibial tuberosity on the tibial crest. In young animals the physeal plate is clearly visible and the drill bit was placed approximately 1-mm below this point. The drill-bit produces a unicortical defect with dimensions 300-μm diameter×1-mm depth. A Hamilton Neuros RN 10-μL syringe with a 33-gauge blunt tip needle was used to inject 2-μL of met5 (28.7-μg), naloxone (400-μg) or naltrexone (378-μg) resuspended in saline directly into the unicortical defect at a rate no faster than approximately 0.1-μL per second. The left-limb tibias served as contra-lateral surgical controls, in which animals received a unicortical defect and 2-μL of saline was injected. Mice were euthanized 5-days after surgery, hind limbs were collected and tibias were fixed for immunofluorescence, TRAP staining and OTC associated bone growth.
MicroCT Analysis of Unicortical Defects: High-resolution images of the tibia were acquired with μCT imaging system (μT40; Scanco Medical). Tibias were scanned at 45-keV with an isotropic voxel size of 12-μm. An analysis region was selected from axial sections to include the entire unicortical defect bounded by the endosteal cortical wall. The volume corrected bone volume (bone volume/total volume; By/Tv), trabecular number (TbN) and trabecular thickness (TbTh) were calculated using the Scanco software.

[3] = tested on: SaO52 osteosarcoma tumor cells; experiment: Assay of cell number (MTT), osteosarcoma cells; assay type: cell-based; conditions: 1-mM, seventy-two hours
Source text: (§2) Methods: Human bone marrow was collected from consenting adult patients undergoing either an elective primary proximal femoral total hip arthroplasty or elective primary distal femoral total knee arthroplasty (n=6, mean age 65) as a part of an IRB approved study. Human MSC were derived from the adherent fraction of whole bone marrow aspirates. Ewing's sarcoma tumor cells (RDES, Hs822 and Hs863) and SaOS2 osteosarcoma tumor cells were obtained from ATCC. Cells were maintained in Dulbecco's Modification of Eagle's Media (DMEM) containing 10% fetal calf serum (v/v) and 1% penicillin-streptomycin-glutamine (PSG; Cellgro, Mediatech).
as §1

[4] = tested on: RDES Ewing's sarcoma of bone tumor cells; experiment: Assay of cell number (MTT), RDES cells; assay type: cell-based; conditions: 1-mM, seventy-two hours
Source text: as §2, §1

Question: How did the “mineral accumulation, effect against met5” value ([1]; 1-mM naloxone added with 5-μM or 50-μM met5 and osteoinduction media) turn out when `C=CCN1CC[C@]23c4c5ccc(O)c4O[C@H]2C(=O)CC[C@@]3(O)[C@H]1C5` [naloxone] was run?
Answer: Its value is “abrogate the anti-osteogenic effects of met5”.

Question: And the “mineral accumulation (red staining)” value ([1]; between 1-μM and 1-mM with osteoinduction media)?
Answer: The value was “substantially increased mineral accumulation”.

Question: And the mineral accumulation ([1]; continuous dosing, with every media change)?
Answer: The mineral accumulation was “slightly depressed”.

Question: And the mineral accumulation ([1]; double 'pulse' dose (2x), 1-mM, second 72-hours after the first)?
Answer: Its mineral accumulation is “substantial increase in mineral accumulation”.

Question: And the mineral accumulation ([1]; single 'pulse' dose (1x), 1-mM)?
Answer: Its mineral accumulation is “substantial increase in mineral accumulation”.

Question: What about the “MSC proliferation (cell number)” value (MSC; 72-hours) of the same molecule?
Answer: The value was “suppressed, but did not stop”.

Question: And the “MSC proliferation (cell number)” value (MSC; 120-hours)?
Answer: Its value is “suppressed, but did not stop”.

Question: What about the “increase in trabecular number (TbN)” value ([2]; 1-mM injected into defect) of the same molecule?
Answer: The value was 1.2 fold.

Question: What about the “increase in bone mass (Bv/Tv)” value ([2]; 1-mM injected into defect, relative to control PBS or met5 treated defects) of the same molecule?
Answer: Its value is 1.53 fold.

Question: What about the bone healing ([2]; naloxone 1-mM or met5 50-μM) of the same molecule?
Answer: Its bone healing is “increased bone healing”.

Question: What about the “SaO52 osteosarcoma cell number relative to control cultures” value [3] of the same molecule?
Answer: Its value is “decreased significantly”.

Question: And the “RDES tumor cell number relative to control cultures” value [4]?
Answer: Its value is “decreased significantly”.
